One experiment concerns HSV-2. In words: Plaque reduction assay for herpes simplex viruses in Vero cells. Type of experiment: cell-based, herpes simplex virus type 2. The note with it: Table 2, read-out: EC-50 HSV-2. On the procedure: (§1) Cell culture assays for heroes simplex viruses. Mycoplasma-free Vero cells, obtained from Flow Laboratory (McLean, Va.), were used for the plaque assays. The methodologies for the plaque reduction and cytotoxicity assays have been previously described (Schinazi et al, Antimicrob. Agents Chemother. 22, 499-507, 1982). Median-effect method. Dose-effect relationships were analyzed by the median-effect equation (Chou et al, Adv. Enz. Regul. 22, 27-55, 1984). The slope (m) and median effective and inhibitory concentration (EC50 and IC50) values were obtained by using a computer program developed by Chou and Chou (Chou et al, Elsevier-Biosoft, Elsevier Science Publishers, Cambridge, U.K., 1985).
(In a plaque reduction assay, fewer plaques than in the control indicate reduced infectivity or spread.)

Another experiment deals with Friend, Spleen (EY-10). In words: UV/XC assay for murine retroviruses in SC-1 cells. As to conditions: Table 2, read-out: EC-50 Friend, Spleen (EY-10). The experiment is classed as cell-based, murine retrovirus. On the procedure: UV/XC Assay for Murine Retroviruses Cells. Mouse embryo fibroblasts (SC-1) and XC cells were obtained from the American Type Culture Collection, Rockville, Md. The XC cell line was derived from a transplantable tumor induced in newborn White-Weston rats by the intramuscular injection of the Prague strain of Rous sarcoma virus. […] The cells were maintained in Eagle's minimum essential medium with Hanks balanced salt solution, supplemented with penicillin (100 U/ml), streptomycin (100 μg/ml), sodium bicarbonate (24 mM), Hepes (25 mM), and either 2 (maintenance) or 10 (growth) percent inactivated newborn or fetal calf serum.
Virus quantitation by UV-XC assay. The XC test (Rowe et al, Virology 42, 1136-1139, 1970) is a plaque-type of assay which tests for the presence and titer of B- and N-tropic murine leukemia viruses. Because these viruses produce no overt signs of infection of SC-1 mouse cells, it is necessary to overlay the virus producing culture with an indicator cell line, XC. The number of syncytia that are produced is a direct measure of the virus titer in FFU.
Six-well plates were seeded with 1×10^5 SC-1 mouse cells on the first day. On the following day the medium was removed and the inoculum (0.2 ml) was added in medium containing polybrene (4 μg/ml). For determining the antiviral activity of the compounds in culture, the virus dilution selected produced in untreated cultures about 80 foci per well. After 1 hour, the virus was removed and various concentrations of the drug were added. The plates were replenished with medium on the third and fifth days. The medium was removed on the eighth day and the cells exposed to UV irradiation (60 erg/mm^2 per sec) for 30 seconds. Medium containing 10^6 XC cells was then added to each plate. On the eleventh day, the plates were fixed with 10% buffered Formalin and stained with crystal violet. Comparison of the number of foci to those found in virus-infected cells receiving no drug allowed determination of whether a drug at a particular concentration was effective. Control cells without virus but receiving the drug provided an estimate of the drug's toxic effects as quantitated by using trypan blue staining.

The test system of the next experiment is HSV-1. Put plainly: Plaque reduction assay for herpes simplex viruses in Vero cells. The experiment is classed as cell-based, herpes simplex virus type 1. As to conditions: Table 2, read-out: EC-50 HSV-1. On the procedure: as §1
Another experiment has as its system Vero cells. In words: Cytotoxicity assay in Vero cells. The experiment is classed as cell-based. The note with it: for IC50: Table 2, >100 μM = Nontoxic, read-out: IC50 Toxicity Vero Cells; for Toxicity Vero Cells, percent at given concentration: 100 μM. The source says:
Cell culture assays for heroes simplex viruses. Mycoplasma-free Vero cells, obtained from Flow Laboratory (McLean, Va.), were used for the plaque assays. The methodologies for the plaque reduction and cytotoxicity assays have been previously described (Schinazi et al, Antimicrob. Agents Chemother. 22, 499-507, 1982).

In experiment [1] the target is T1, HIV-1 reverse transcriptase (Human immunodeficiency virus type 1 group M subtype B, UniProt P04585).
T1 construct: HIV-1 RT was isolated from detergent disrupted virions; made in house; host or cells: virions pelleted from culture fluid of HIV-1-infected PHA-stimulated human PBMC; DEAE-cellulose and phosphocellulose chromatography
In words: Evaluation of compounds on purified retroviral RT (cell-free, virion-derived). Type of experiment: biochemical. The note with it: Table 2; read-out: EC-50 Cell-Free RT (virion-derived). The gist of the method:
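Enzyme was HIV-1 RT partially purified from virions of infected PHA-stimulated PBMC by DEAE-cellulose and phosphocellulose chromatography. Reactions at pH 8.0 with 2 mM MgCl2, 50 mM KCl, 3 μg/ml (rA)·(dT)12-18 template and 1 μM [3H]TTP, 60 min at 37 °C. IC50 from median-effect analysis.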

Where two headings read alike, the source gives them in different places.

As to `Cc1cn([C@H]2C[C@H](N=[N+]=[N-])[C@@H](CO)O2)c(=O)[nH]c1=O` [Formula 22, 3′-azido-3′-deoxythymidine, reference compound], the EC50 is > 100 µM in the experiment on HSV-2 (Human alphaherpesvirus 2, Vero); 10 nM in the experiment with Friend, Spleen (EY-10) (unidentified retrovirus, SC-1); > 100000 nM in the experiment on HSV-1 (Human alphaherpesvirus 1, Vero). In addition, the 50% inhibitory concentration (IC50) with Vero cells (Chlorocebus sabaeus, Vero) worked out at 29 µM.
With “(ArgH^+)m(H^+)4-mST, where m=1-4 [(ARGH^+)nH^+(4−n)ST]”, the EC50 with HSV-2 is < 1 µM; in the experiment with Friend, Spleen (EY-10), 990 nM; with HSV-1, 180 nM; in experiment [1], 14.2 µM. Moreover, in the experiment with Vero cells, the half-inhibitory concentration (IC50) was > 100 µM.
Regarding (Me4N)4W10O32 [Formula 19], the EC50 in the experiment with HSV-2 was 8.78 µM; in the experiment with HSV-1, 5980 nM; in experiment [1], 10.1 µM. The IC50 in the experiment with Vero cells is > 100 µM.
Consider (NH4)4W10O32 [Formula 18], for which the EC50 with HSV-2 was 9.7 µM; in the experiment with Friend, Spleen (EY-10) it was 580 nM; in the experiment on HSV-1, > 10000 nM; in experiment [1], 24.2 µM. In addition, in the experiment with Vero cells, the IC50 was > 100 µM.
Regarding (NH4)6P2W18O62 [Formula 14], the EC50 stood at 0.24 µM with HSV-2, 330 nM in the experiment with HSV-1 and 0.13 µM in experiment [1]. For the same molecule, in the experiment on Vero cells, the “Toxicity Vero Cells, percent at given concentration” value is recorded as 83%,.
Take H3PW12O40 [Formula 2]: the results for the EC50 (in the experiment on HSV-2; in the experiment with HSV-1; in experiment [1]) were 18.7 µM, 12700 nM and > 100 µM, respectively. The IC50 in the experiment on Vero cells stood at 10 µM.
H4SiW12O40 [Formula 3]: the EC50 in the experiment with HSV-2 worked out at 1.5 µM; with Friend, Spleen (EY-10), 170 nM; with HSV-1, 1600 nM; in experiment [1], 26.1 µM. Further, the concentration for half-maximal inhibition (IC50) with Vero cells came out at 80 µM.
With H5BW12O40 [Formula 4], the EC50 with Friend, Spleen (EY-10) was 180 nM; in the experiment on HSV-1, < 1000 nM; in experiment [1], 2.6 µM. Further, the half-maximal inhibitory concentration (IC50) with Vero cells came to 85 µM.
Take H6P2W18O62 [Formula 13]: the EC50 with HSV-2 worked out at 0.18 µM; in the experiment on HSV-1, 160 nM; in experiment [1], 0.14 µM. Besides, the “Toxicity Vero Cells, percent at given concentration” value with Vero cells was 81.9%,.

A word on the IC50: it is the concentration needed to halve the response being measured.

The values are drawn from US6911470B1, “Polyoxometalate compounds as antiviral agents” (priority 1988, dated 2005).
